± gives the expanded uncertainty stated by the source.
Conditions: Liquid; for thermal conductivity: Hot wire method; for mass density: Constant-volume piezometry

CCCCn1cc[n+](C)c1.F[P-](F)(F)(F)(F)F [1-butyl-3-methylimidazolium hexafluorophosphate]
Conditions	mass density, 100 kPa [kg/m3]	mass density, 10000 kPa [kg/m3]	mass density, 20000 kPa [kg/m3]	thermal conductivity, 0.1 kPa [W/m/K]	thermal conductivity, 10 kPa [W/m/K]	thermal conductivity, 20 kPa [W/m/K]
294.9 K	1369 ± 13	1373 ± 13	1378 ± 14	0.145 ± 0.006	0.146 ± 0.006	0.148 ± 0.006
315 K	1352 ± 13	1357 ± 13	1362 ± 13	0.145 ± 0.006	0.146 ± 0.006	0.147 ± 0.006
335.1 K	1336 ± 13	1341 ± 13	1347 ± 13	0.144 ± 0.006	0.145 ± 0.006	0.147 ± 0.006

CCCCCCn1cc[n+](C)c1.F[P-](F)(F)(F)(F)F [1-hexyl-3-methylimidazolium hexafluorophosphate]
Conditions	mass density, 294.1 K [kg/m3]	mass density, 315.1 K [kg/m3]	mass density, 335.2 K [kg/m3]	thermal conductivity, 294.1 K [W/m/K]	thermal conductivity, 315.1 K [W/m/K]	thermal conductivity, 335.2 K [W/m/K]
100 kPa	1294 ± 12	1278 ± 11	1262 ± 11	0.145 ± 0.006	0.145 ± 0.006	0.144 ± 0.006
10000 kPa	1300 ± 12	1284 ± 12	1268 ± 11	0.147 ± 0.006	0.146 ± 0.006	0.146 ± 0.006
20000 kPa	1306 ± 12	1290 ± 12	1274 ± 12	0.148 ± 0.006	0.148 ± 0.006	0.147 ± 0.006

CCCCCCCC[n+]1ccn(C)c1.F[P-](F)(F)(F)(F)F [1-octyl-3-methylimidazolium hexafluorophosphate]
Conditions	mass density, 295.1 K [kg/m3]	mass density, 315.1 K [kg/m3]	mass density, 335.2 K [kg/m3]	thermal conductivity, 295.1 K [W/m/K]	thermal conductivity, 315.1 K [W/m/K]	thermal conductivity, 335.2 K [W/m/K]
100 kPa	1236 ± 11	1222 ± 10	1207 ± 10	0.145 ± 0.006	0.145 ± 0.006	0.144 ± 0.006
10000 kPa	1243 ± 11	1228 ± 11	1213 ± 10	0.147 ± 0.006	0.146 ± 0.006	0.146 ± 0.006
20000 kPa	1249 ± 11	1234 ± 11	1219 ± 11	0.147 ± 0.006	0.147 ± 0.006	0.147 ± 0.006

CCCCCCCC [octane]
100 kPa
Conditions	thermal conductivity [W/m/K]
294.5 K	0.126 ± 0.005
314.7 K	0.121 ± 0.005
334.8 K	0.115 ± 0.005

Cc1ccccc1 [toluene]
thermal conductivity [W/m/K]
Conditions	294.2 K	314.1 K	334.4 K
100 kPa	0.132 ± 0.006	0.127 ± 0.005	0.122 ± 0.005
10000 kPa	0.136 ± 0.006	0.131 ± 0.006	0.126 ± 0.005
20000 kPa	0.139 ± 0.006	0.135 ± 0.006	0.129 ± 0.005

From the NIST ThermoML archive (doi:10.1007/s10765-007-0241-8)
